In patent US5811074A, “Method of diagnosing pituitary dependent growth hormone deficiency” (University of South Florida, priority 1996, dated 1998):
Where a SMILES comes first, the peptide text is derived from it. Where no end group is shown, it is not given here. [ ]: non-standard residue; d: D form.

Experiments:
[1] = system: GH release; experiment: GH release after GHRP-6 alone and in combination with GHRH in old versus young rats; format: in vivo, Fischer 344 rats; conditions: GHRP-6 alone, old vs young rats
Source text: Fischer 344 rats (Charles River), both male and female, were used. Young animals are defined as sexually mature between 2 and 7 months of age. Old animals are defined as those over 16 months of age.
GHRH-efficacy has been reported to be reduced 50 to 75% in old rats (Sonntag et al., 1983); therefore, applicants tested the effect of GHRP-6 alone and in combination with GHRH on GH release in old rats. Peak plasma GH concentrations resulting from GHRP-6 administration in old rats were approximately 60% less than in young rats. […] Since target organs sometimes become hyperresponsive when tonic and/or phasic stimulation decreases, than one would expect exaggerated responses to provocative exogenous stimuli under experimental conditions. GH hypersecretion observed in naive, old rats administered a single bolus of GHRH and GHRP (Walker et al., 1991) provides support for the hypothesis that deficits in stimulated GH secretion in aged rats were due to insufficient signals or inappropriately transduced GH releasing stimuli.

[2] = system: GH release; experiment: GHRP-6 activity in young rats with reduced endogenous GHRH (GHRH antiserum or α-methyl-p-tyrosine); format: in vivo
Procedure: FIG. 2 is a dose response curve for GHRP-6 in rats pretreated with vehicle (triangles), α-methyl-p-tyrosine (circles), or GHRH antiserum (squares). Values represent means±SEM (8 rats per dose and treatment) in plasma collected 15 minutes after administration of GHRP-6.
Young rats were passively immunized against endogenous GHRH or administered α-methyl-.rho.-tyrosine. If GHRH and the endogenous ligand of GHRP-6 are physiological co-agonists of GH secretion in the young rat, then removal of one or the other should be expressed as attenuated activity of its co-agonist when administered alone. Passive immunization which inactivates GHRH with neutralizing antibodies, or α-methyl-p-tyrosine (L form) which blocks stimulation of hypothalamic GHRH neurons were used to remove or reduce concentrations of endogenous GHRH in the young experimental animals. These treatments were intended to simulate the aged condition in which concentrations of GHRH and GHRH mRNA are low (De Gennaro Collona et al., 1989; Morimoto et al., 1988). Afterwards, GHRP-6 was administered to test and compare its efficacy with that in old rats (Walker et al., 1991).
Presumably, naturally occurring decrements in endogenous GHRH during aging contributed to the blunted response to GHRP-6 that applicants observed (Walker et al., 1991). […]

[3] = system: GH secretion; experiment: Pediatric study: sequential GHRP then GHRH bolus, and co-administration, serum GH by radioimmunoassay; format: in vivo, children; conditions: for GH response to sequentially administered secretagogue: hypopituitary subject (atrophic, developmentally retarded pituitary gland), FIG. 4B
Procedure: The protocol used in the pediatric study from which data presented below were collected involved the sequential administration of exogenous GHRP and exogenous GHRH as set forth in the present invention (Table 4; FIGS. 1A-1B). Briefly, each subject began testing at approximately 0900 h, one half hour after placement of an intravenous catheter. Two blood samples for basal concentrations of serum GH were drawn, and GHRP (1 μg/kg) was administered as a bolus. Blood samples were then drawn at five minute intervals for 20 minutes during which the GH secretory response occurred, and at longer intervals for about two hours thereafter.
GHRH (1 μg/kg) was then administered as a bolus, when basal GH concentrations were again established. Blood samples were similarly collected after GHRH administration as they were following GHRP administration. GH concentrations in each serum was then determined by radioimmunoassay.
The study population was composed of children with normal GH secretory function (serving as controls and normal baseline values) and those with GH secretory dysfunction of various clinical diagnoses. The purpose of evaluating different etiologies of GH secretory dysfunction was to validate the hypothesis that complementary endogenous GH secretagogues must be present for optimal expression of GHRP or GHRH stimulatory potential.

[4] = system: GH secretion; experiment: Repeated injections of GHRH preceded by GHRP in the same individual, peak serum GH; format: in vivo; conditions: repeated tests in same individual
Procedure: The timing between the sequential, independent challenges must be between two and four hours with the preferred embodiment at two hours (120 minutes after GHRX administration). Blood is drawn at regular intervals for up to two hours after the administration of each secretagogue, generally every 5 minutes for the first 20 minutes after administration and 10-15 minute intervals thereafter for the remaining two hours. From these blood samples the peak GH response is measured thereby determining if GH level changes after each administration has occurred.
Relevant to using GHRH and GHRP as diagnostic agents is the fact that GHRP eliminates the endogenous factors causing variability in the GHRH response. Administration before GHRH creates an episode of GH secretion that "resets" the sensitivity of the GH neurosecretory axis to stimulation by GHRH, so that at the time of GHRH administration, uniform baseline conditions in the subject have been achieved. This then puts the GH neurosecretory axis in a uniform state of readiness for GHRH so that a subsequent relatively stable and constant episode of GHRH-stimulated GH secretion results (Table 3). This GHRH stimulated GH secretory episode can then be compared with the stable episode of GHRP-stimulated GH secretion that preceded it as a basis for the diagnostic test of the present invention.

[5] = system: GH secretion; experiment: Provocative challenge with a GH secretagogue administered alone, peak serum GH; format: in vivo
Procedure: The diagnostic potential of GHRX and GHRH, with GHRP and growth hormone releasing hormone respectively the preferred compounds, for determining the etiology of GH secretory deficiency is profoundly affected by the sequence in which the secretagogues are administered. When GHRH is administered alone, the GH secretory response it elicits is extremely variable and is poorly dose related (Table 1).
On the other hand, the response to GHRP administered alone is not variable (Table 2). The minimal variability of the GHRP response is presumed to result from its partial action as a somatostatin […].
The growth hormone levels in the blood of the child or adult can be measured by any well known procedures, e.g., using an immunoradiometric assay as described by Bowers et al. (1990) or any other contemporary, scientifically accepted method.

[6] = system: GH release; conditions: rats; Bercu et al., 1992a; cited from earlier work
[7] = target: T1, pituitary GHRH receptor (Rattus norvegicus, UniProt Q02644); experiment: Effect of GHRH receptor antagonist on GH release in response to GHRP-6 or morphine in young rats; format: in vivo
T1 construct: tissue Charles River; host or cells: living Fischer 344 rats (pituitary, in vivo)
T1 sequence (Q02644 23-464): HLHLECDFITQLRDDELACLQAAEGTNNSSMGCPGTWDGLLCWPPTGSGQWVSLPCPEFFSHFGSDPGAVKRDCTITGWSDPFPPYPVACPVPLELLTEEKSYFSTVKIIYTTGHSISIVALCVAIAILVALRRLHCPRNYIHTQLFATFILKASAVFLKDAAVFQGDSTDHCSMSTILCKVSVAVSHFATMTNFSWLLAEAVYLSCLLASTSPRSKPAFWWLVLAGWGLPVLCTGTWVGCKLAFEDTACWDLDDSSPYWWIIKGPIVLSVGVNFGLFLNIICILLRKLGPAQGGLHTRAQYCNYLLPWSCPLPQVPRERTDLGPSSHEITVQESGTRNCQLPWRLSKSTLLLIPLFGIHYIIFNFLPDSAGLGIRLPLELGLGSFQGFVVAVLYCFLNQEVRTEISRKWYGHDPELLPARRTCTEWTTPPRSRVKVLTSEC
Procedure: FIGS. 3A-3B are dose response curves showing the effect of [N-Ac-Tyr^1,D-Arg^2 ]-GRF 1-29 amide, a GHRHreceptor antagonist, on GH release in response to GHRP-6 (30 μg/kg, closed symbols, FIG. 3A) or morphine (1.5 mg/kg, open symbols, FIG. 3B). The GHRH receptor antagonist was administered in doses of 0 (circle), 5 (square), 50 (triangle), or 150 (diamond) μg/kg. Values represent mean±SEM 8 rats per group.
The second possible cause of age-related decrements in GH secretion applicants considered was that deterioration in GH secretagogue signal transduction at the pituitary level contributes to the progressive insensitivity to provocative stimuli. In a test of this hypothesis, applicants examined GH secretory responses to GHRP-6 in young rats administered [N-Ac-Tyr^1, D-Arg^2 ]-GRF 1-29, an antagonist to the pituitary GHRH receptor.
However, 150 μg/kg of [N-Ac-Tyr^1, D-Arg^2 ]-GRF 1-29 amide potentiated GHRP-6 activity, presumably due to partial agonist activity of the GHRH receptor […] at the higher dose (Bercu et al., 1992a).

## C[C@H](NC(=O)[C@@H](Cc1c[nH]c2ccccc12)NC(=O)[C@@H](N)Cc1c[nH]cn1)C(=O)N[C@@H](Cc1c[nH]c2ccccc12)C(=O)N[C@H](Cc1ccccc1)C(=O)N[C@@H](CCCCN)C(N)=O [GHRP-6, His-D-Trp-Ala-Trp-D-Phe-Lys-NH2] (H-H[dW]AW[dF]K-NH2)
[1]
  Peak plasma GH concentration in old rats, less than in young rats: approximately 60%
[2]; young female rats pretreated with GHRH antiserum
  GHRP-6 activity (plasma GH 15 minutes after GHRP-6): significantly attenuated
[2]; young female rats pretreated with α-methyl-p-tyrosine
  GHRP-6 activity (plasma GH 15 minutes after GHRP-6): significantly attenuated
[3]; children after radiation of the head (group)
  GHRP:GHRH ratio: < 1
[3]; children responding poorly to both secretagogues but better to GHRP (group)
  GHRP:GHRH ratio: > 3
[3]; constitutional delay subject, FIG. 4C
  GHRP to GHRH ratio: 3.1
[3]; constitutional delay subject, FIG. 4C, GHRP-6 1 μg/kg
  Peak response, serum GH: 13.5 ng/mL
[3]
  GH response to sequentially administered secretagogue: responded to neither
[3]; irradiated subject, FIG. 4D
  GHRP to GHRH ratio: 0.38
[3]; irradiated subject, FIG. 4D, GHRP-6 1 μg/kg
  Peak response, serum GH: 18.9 ng/mL
[4]; GHRP 1.0 μg/kg given first
  Peak Serum GH x ± SEM: 69.31 ± 4.21 ng/mL
[5]; GHRP alone, 0.1 μg/kg
  Peak Serum GH x ± SEM: 17.51 ± 1.91 ng/mL
[5]; GHRP alone, 0.5 μg/kg
  Peak Serum GH x ± SEM: 41.31 ± 3.97 ng/mL
[5]; GHRP alone, 1.0 μg/kg
  Peak Serum GH x ± SEM: 67.88 ± 6.1 ng/mL
[5]; GHRP alone, 1.5 μg/kg
  Peak Serum GH x ± SEM: 81.60 ± 5.88 ng/mL
[6]
  Reduction of GHRP-6 activity by passive immunization against endogenous GHRH: approximately 90%

## GHRH: naturally occurring GH releasing hormone (growth hormone releasing hormone) (YADAIFTNSYRKVLGQLSARKLLQDIMSRQQGESNQERGARARL; ends and bridges not checked; UniProt P01286 32-75, looked up)
[3]; constitutional delay subject, FIG. 4C, GHRH 1 μg/kg
  Peak response, serum GH: 4.4 ng/mL
[3]
  GH response to sequentially administered secretagogue: responded to neither
[3]; irradiated subject, FIG. 4D, GHRH 1 μg/kg
  Peak response, serum GH: 49.4 ng/mL
[4]; GHRH 1.0 μg/kg preceded by GHRP
  Peak Serum GH x ± SEM: 32.66 ± 3.33 ng/mL
[5]; GHRH alone, 0.1 μg/kg
  Peak Serum GH x ± SEM: 9.46 ± 3.71 ng/mL
[5]; GHRH alone, 0.33 μg/kg
  Peak Serum GH x ± SEM: 16.45 ± 8.11 ng/mL
[5]; GHRH alone, 1.0 μg/kg
  Peak Serum GH x ± SEM: 13.54 ± 6.51 ng/mL
[5]; GHRH alone, 3.3 μg/kg
  Peak Serum GH x ± SEM: 21.80 ± 6.78 ng/mL
[5]; GHRH alone, 10.0 μg/kg
  Peak Serum GH x ± SEM: 17.41 ± 4.67 ng/mL

## [N-Ac-Tyr^1,D-Arg^2 ]-GRF 1-29 amide [[N-Ac-Tyr^1, D-Arg^2]-GRF 1-29 amide]
[7]; 50 μg/kg antagonist, P<0.05, FIG. 3A
  GHRP-6 stimulated GH secretion as a function of time: significantly reduced
[7]; 150 μg/kg antagonist, P<0.01, FIG. 3A
  GHRP-6 stimulated GH secretion as a function of time: significantly increased
[7]; 150 μg/kg, GHRP-6 30 μg/kg
  Effect on GHRP-6 activity: potentiated
[7]; 50 and 150 μg/kg antagonist, P<0.05, morphine 1.5 mg/kg, FIG. 3B
  Morphine-stimulated GH secretion: significantly reduced
[7]; pre-administration of 5 to 50 μg/kg, GHRP-6 30 μg/kg
  Effect on GHRP activity: attenuated
